Values quoted from earlier work, collected in patent publication US20160106679A1, “TABLET WITH INCREASED DRUG LOAD OF ODANACATIB” (SANDOZ AG, priority 2013, published 2016).
Where two headings read alike, the source gives them in different places.

Key:
[1] = highly crystalline odanacatib

In the case of `CC(C)(F)C[C@H](N[C@@H](c1ccc(-c2ccc(S(C)(=O)=O)cc2)cc1)C(F)(F)F)C(=O)NC1(C#N)CC1` [Odanacatib, odanacatib], the aqueous solubility [1] is given as “low”, the “BMD change at lumbar spine, hip and femoral neck” value (patients; patients treated once weekly with 20-50 mg) is given as “increases in lumbar spine, hip and femoral neck BMD” and the “BMD change at lumbar spine, hip and femoral neck” value (patients; patients treated with low doses) is given as “decreases in BMD at the same sites”.
